Here are results for 13 compounds from patent publication US5185366A, “Method for treatment and prevention of diseases caused by enveloped viruses, including herpes simplex virus types 1 and 2 diseases, using 3,4-dihydroxy-2H-benzopyran-2H-one” (Ohio State University Research Foundation, priority 1990, dated 1993).

Read-outs that look alike come from different tables or passages of the source.

In series [1] the test system is enveloped viruses. The note with it: cited from earlier work.
Series [2] relates to HSV. The note with it: cited from earlier work; for extracellular inactivation of HSV: 0.5 mM.
The nature of series [3]: Inhibition of cell growth (microscopic cell count). The format is cell-based, Buffalo green monkey. The note with it: monkey, bgm-70 cells, read-out: % Reduction of cell growth; for inhibition at 24 h, 0.4 µM / inhibition at 48 h, 0.4 µM: 0.4 μmol/L; for inhibition at 24 h, 2.5 µM / inhibition at 48 h, 2.5 µM: 2.5 μmol/L; for inhibition at 24 h, 10 µM / inhibition at 48 h, 10 µM: 10.0 μmol/L; for inhibition at 24 h, 50 µM / inhibition at 48 h, 50 µM: 50.0 μmol/L; for inhibition at 24 h, 100 µM / inhibition at 48 h, 100 µM: 100.0 μmol/L; for inhibition at 24 h, 1.6 µM / inhibition at 48 h, 1.6 µM: 1.6 μmol/L. As to the method: a MASHII cell harvester and placed in a scintillation counter to determin
incorporation of labelled compound and level of toxicity. BGM 70 cells ar
seeded at a concentration of […] per well in a 24well tissue cultur
plate. Cells are planted in 2 mL of growth medium with or without the tes
compound and are incubated at 37° C. for 38 hours. At 24 hours
medium is removed from onehalf of the plates and the cells are fixed and
stained with crystal violet. The remaining cultures are fixed and stained
^b BGM 70 cells are counted microscopically and comparisons are made.
Experiments are performed blindly by assigning each compound concentratio
a letter code. The code is broken after the cells are counted.
The effect of the compounds on the inhibition of cell growth is determined using BGM-70 cells grown in vitro. For this assay, BGM 70 cells are seeded at a concentration of approximately 70 cells per well in 24-well tissue culture plates. Cells are planted in 2 ml of growth medium with or without the test compound and are incubated at 37° C. for 48 hours. At 24 hours, cells from one half of the plates are fixed and stained with crystal violet. The remaining cultures are fixed and stained at 48 hours. Cells are counted microscopically and comparisons are made between non-treated (control) and treated cells.

Series [4] deals with HSV-2. The experiment in a line: Extracellular activity, inhibition of plaque forming units, HSV-2. The conditions noted are these: for inhibition at 10 µM: Human alphaherpesvirus 2, read-out: % Inhibition of PFU, EA (extracellular activity), HSV-2, 10.0 μmol/L; for inhibition at 0.4 µM: Human alphaherpesvirus 2, read-out: % Inhibition of PFU, EA (extracellular activity), HSV-2, 0.4 μmol/L; for inhibition at 1.6 µM: Human alphaherpesvirus 2, read-out: % Inhibition of PFU, EA (extracellular activity), HSV-2, 1.6 μmol/L; for inhibition at 2.5 µM: Human alphaherpesvirus 2, read-out: % Inhibition of PFU, EA (extracellular activity), HSV-2, 2.5 μmol/L.

Series [5] deals with HSV-2. The experiment in a line: Intracellular activity, inhibition of plaque forming units, HSV-2. The format is cell-based, Herpes simplex virus type 2. The conditions noted are these: read-out: % Inhibition of PFU, IA (intracellular activity); for inhibition at 10 µM: Human alphaherpesvirus 2, HSV-2, 10.0 μmol/L; for inhibition at 0.4 µM: Human alphaherpesvirus 2, HSV-2, 0.4 μmol/L; for inhibition at 1.6 µM: Human alphaherpesvirus 2, HSV-2, 1.6 μmol/L.

The test system of series [6] is Buffalo green monkey kidney (BGM 70) cells. The experiment in a line: [3H]-thymidine uptake cytotoxicity. The format is cell-based. The conditions noted are these: for inhibition at 0.4 µM / inhibition at 1.6 µM / inhibition at 2.5 µM / inhibition at 10 µM: Chlorocebus sabaeus, read-out: % Inhibition of [3H]-Thymidine Incorporated; for inhibition at 0.4 µM: 0.4 μmol/L; for inhibition at 1.6 µM: 1.6 μmol/L; for inhibition at 2.5 µM: 2.5 μmol/L; for inhibition at 10 µM: 10.0 μmol/L.

The subject of series [7] is HBV surface antigen. The conditions noted are these: Pottage et al., cited from earlier work.
The subject of series [8] is cellular protein synthesis. The note with it: Pottage et al., cited from earlier work.
Series [9] concerns human immunodeficiency virus (HIV). The conditions noted are these: cited from earlier work.
[10] abbreviates: at concentrations of 10 μM or less.

As to `CCCCC[C@@H](O)[C@H]1C(=O)O[C@H](C)[C@@H](O)/C=C/C=C/C=C/C=C/C=C(\C)[C@@H](O)C[C@H](O)C[C@H](O)C[C@H](O)C[C@H](O)C[C@H](O)C[C@@H]1O` [filipin], the “inactivation of enveloped viruses” value in series [1] was “inactivates enveloped viruses”.

As for `CCCCCCCCCCCCCCO` [tetradecanol], the “extracellular inactivation of HSV” value in [2] is 90-100%.

Turning to `O=c1oc2ccc(O)cc2c(O)c1O` [Compound 7], in [3], the inhibition at 24 h, 0.4 µM stood at 14.2 ± 6.2%; the inhibition at 24 h, 2.5 µM was 0.4%; the inhibition at 24 h, 10 µM amounted to 1.6 ± 0.2%; the inhibition at 24 h, 50 µM was determined as 18.4 ± 6.1%. In addition, in [3], the inhibition at 24 h, 100 µM was 52 ± 8%; the inhibition at 48 h, 2.5 µM amounted to 1 ± 0.4%; the inhibition at 48 h, 10 µM was 2 ± 1%; the inhibition at 48 h, 50 µM was determined as 22.1 ± 8.4%. Moreover, the inhibition at 48 h, 100 µM in series [3] was found to be 66 ± 11.1%. In [4], the inhibition at 10 µM came to 86 ± 0.5%. Also, in [5], the inhibition at 10 µM was 10 ± 3.2%. In series [6] (24 h), the inhibition at 0.4 µM turned out to be 13.6 ± 6.1%, the inhibition at 1.6 µM worked out at 28.6 ± 12%, the inhibition at 2.5 µM came to 36.9 ± 8.6% and the inhibition at 10 µM stood at 44.3 ± 9.1%. In addition, in series [6] (48 h), the inhibition at 0.4 µM is 13.9 ± 6.1%, the inhibition at 1.6 µM worked out at 31.7 ± 8.4%, the inhibition at 2.5 µM came out at 37.2 ± 5.1% and the inhibition at 10 µM amounted to 46.6 ± 8%. Also, in [6] (72 h), the inhibition at 0.4 µM came out at 13.9 ± 6.1%, the inhibition at 1.6 µM was found to be 31.6 ± 8.4%, the inhibition at 2.5 µM is 39.3 ± 13.1% and the inhibition at 10 µM worked out at 48.4 ± 14%. Also, the “toxicity ([3H]-thymidine uptake and/or cell growth)” value (“toxicity” below) in [6] (setting [10]) was “display toxicity”.

Consider `O=C1OC2(CCCCC2)C(O)=C1O` [Compound 4, 4-spiro-2-hydroxytetronic acid], for which, in [3], the inhibition at 24 h, 0.4 µM is 6 ± 1.1%; the inhibition at 24 h, 1.6 µM was found to be 21 ± 12%; the inhibition at 24 h, 2.5 µM was found to be 37 ± 9.4%; the inhibition at 24 h, 10 µM amounted to 88 ± 6.1%. Also, in series [3], the inhibition at 48 h, 0.4 µM was found to be 8.4 ± 3.6%; the inhibition at 48 h, 1.6 µM was found to be 22 ± 6.1%; the inhibition at 48 h, 2.5 µM is 59 ± 12.4%; the inhibition at 48 h, 10 µM was found to be 86 ± 6.1%. Moreover, in series [4], the inhibition at 0.4 µM turned out to be 2 ± 1% and the inhibition at 1.6 µM turned out to be 1.8 ± 0.2%. For the same compound, the “toxicity” value in [6] (setting [10]) was “display toxicity”.

Turning to `CCOC(=O)C(C)(C)Oc1ccc(Cl)cc1` [clofibrate, clofibric acid ethyl ester], in [2] (Steinhart et al.), the antiherpetic activity result was “antiherpetic activity”.

As for `CCCCCCCCCCO` [decanol], the “extracellular inactivation of HSV” value in series [2] is 90-100%.

On to `CC(=O)N1CCN(c2ccc(OCC3COC(Cn4ccnc4)(c4ccc(Cl)cc4Cl)O3)cc2)CC1` (centres unmarked) [Ketoconazole], for which the “inhibition in HBV surface antigen production” value in [7] (10 μg/mL) was 72%. Moreover, the “HBV surface antigen production” value in series [7] is on record as “non-specifically inhibits HBV surface antigen production”. Besides, in series [8] (10 μg/mL), the “reduction in protein synthesis” value was 38%. Further, the cellular protein synthesis result in series [8] is on record as “decrease in cellular protein synthesis”.

For the compound `O=c1oc2cc3c(cc2c(O)c1O)OCO3` [Compound 8], in [3], the inhibition at 24 h, 2.5 µM came out at 2 ± 0.6%; the inhibition at 24 h, 10 µM was determined as 6.6 ± 1%; the inhibition at 24 h, 50 µM is 54 ± 2%; the inhibition at 24 h, 100 µM was found to be 68 ± 7.6%. In series [3], the inhibition at 48 h, 2.5 µM amounted to 4.2 ± 3.6%; the inhibition at 48 h, 10 µM came out at 8.1 ± 2.1%; the inhibition at 48 h, 50 µM turned out to be 52.2 ± 9.1%; the inhibition at 48 h, 100 µM is 71 ± 8.1%. In series [4], the inhibition at 2.5 µM was determined as 3 ± 1% and the inhibition at 10 µM was found to be 16 ± 8%. In series [5] (Human alphaherpesvirus 2, HSV-2, 2.5 μmol/L), the inhibition at 2.5 µM came out at 1 ± 0.2%. Also, the inhibition at 10 µM in [5] amounted to 6.1 ± 1%. The “toxicity” value in [6] (at 10 μM) was “no toxicity”.

Take `O=c1oc2ccc(Cl)cc2c(O)c1O` [Compound 6]: in [3], the inhibition at 24 h, 0.4 µM was determined as 21 ± 1%; the inhibition at 24 h, 1.6 µM came out at 20 ± 6.2%; the inhibition at 24 h, 2.5 µM came out at 56 ± 12%; the inhibition at 48 h, 0.4 µM amounted to 12 ± 6.5%. Further, in series [3], the inhibition at 48 h, 1.6 µM was determined as 30 ± 13.1% and the inhibition at 48 h, 2.5 µM was 58 ± 9.4%. In series [4], the inhibition at 0.4 µM was found to be 1.5 ± 0.8%, the inhibition at 1.6 µM was found to be 1.2 ± 0.6% and the inhibition at 2.5 µM was 0.4 ± 0.1%. Also, in [5], the inhibition at 0.4 µM stood at 3 ± 1.1% and the inhibition at 1.6 µM stood at 10 ± 4.6%. For the same compound, in [6] (24 h), the inhibition at 0.4 µM was determined as 11.1 ± 9.1%, the inhibition at 1.6 µM worked out at 31.1 ± 5.8%, the inhibition at 2.5 µM is 17.8 ± 2% and the inhibition at 10 µM turned out to be 90 ± 1.4%. In series [6] (48 h), the inhibition at 0.4 µM was determined as 16.7 ± 8.4%, the inhibition at 1.6 µM stood at 46.8 ± 9%, the inhibition at 2.5 µM turned out to be 20 ± 3.3% and the inhibition at 10 µM turned out to be 99.2 ± 0.8%. In addition, in series [6] (72 h), the inhibition at 0.4 µM is 31.8 ± 12%, the inhibition at 1.6 µM was found to be 41.4 ± 14%, the inhibition at 2.5 µM amounted to 17 ± 5% and the inhibition at 10 µM came out at 99.2 ± 0.8%. For the same compound, in series [6] (setting [10]), the “toxicity” value was “display toxicity”.

Turning to nonoxynol-9, the “inactivation of HIV” value in series [9] is on record as “inactivate HIV”.

In the case of benzalkonium chloride, the “inactivation of HIV” value in [9] is listed as “inactivate HIV”. For the same compound, in series [9] (general fluids of seropositive individuals), the “concentration destroying the infectiousness of HIV” value was 0.05%.

On to `CCCCCCCCCCCCO` [dodecanol], for which, in series [2], the “extracellular inactivation of HSV” value is recorded as 90-100%.

For `CC1(c2ccc(Cl)cc2)OC(=O)C(O)=C1O` (racemic) [Compound 1], in series [3], the inhibition at 24 h, 0.4 µM is 12 ± 4%; the inhibition at 24 h, 1.6 µM stood at 54 ± 8.6%; the inhibition at 24 h, 2.5 µM amounted to 60 ± 9.1%; the inhibition at 48 h, 0.4 µM came to 16 ± 3.6%. In addition, in series [3], the inhibition at 48 h, 1.6 µM came to 67 ± 12.1% and the inhibition at 48 h, 2.5 µM was found to be 90 ± 4.6%. In addition, in series [4], the inhibition at 0.4 µM was found to be 0% and the inhibition at 1.6 µM was 1.5 ± 0.1%. Besides, in series [5], the inhibition at 0.4 µM was 0% and the inhibition at 1.6 µM was found to be 8 ± 2.4%. For the same compound, in series [6] (24 h), the inhibition at 0.4 µM worked out at 0%, the inhibition at 1.6 µM was determined as 16.7 ± 12.7%, the inhibition at 2.5 µM was determined as 66.7 ± 5.8% and the inhibition at 10 µM was 95 ± 0.4%. In series [6] (48 h), the inhibition at 0.4 µM came to 0%, the inhibition at 1.6 µM was 14.5 ± 15.5%, the inhibition at 2.5 µM is 74.3 ± 9.3% and the inhibition at 10 µM was found to be 98.6 ± 0.5%. For the same compound, in series [6] (72 h), the inhibition at 0.4 µM came to 0%, the inhibition at 1.6 µM was 39.9 ± 15.7%, the inhibition at 2.5 µM was 53.9 ± 16.3% and the inhibition at 10 µM was 98.2 ± 0.8%. Besides, in [6] (setting [10]), the “toxicity” value is “display toxicity”.
